In patent US20240246964A1 (Arbutus Biopharma Corporation, priority 2021, published 2024):
Read-outs that look alike come from different tables or passages of the source.

Columns and labels:
human PD-L1 = human PD-L1 (Homo sapiens (Human), UniProt Q9NZQ7); assay: T cell activation luciferase reporter cell culture system (T Cell Activation Assay); format: cell-based
[1] = target: PD-L1 His protein / PD-1 Fc protein (Homo sapiens (Human), UniProt Q9NZQ7); assay: HTRF Assay (PD-1/PD-L1 interaction); format: binding
Chain of PD-L1 His protein / PD-1 Fc protein (Q9NZQ7 19-238): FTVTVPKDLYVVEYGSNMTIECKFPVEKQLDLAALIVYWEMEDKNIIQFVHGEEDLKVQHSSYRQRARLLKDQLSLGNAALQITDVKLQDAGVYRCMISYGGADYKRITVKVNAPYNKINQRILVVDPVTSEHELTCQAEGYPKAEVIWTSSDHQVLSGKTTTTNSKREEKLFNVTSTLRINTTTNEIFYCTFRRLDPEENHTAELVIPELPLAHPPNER

[2] = luciferase reporter assay, PD-L1 aAPC/CHO-K1 cells with PD-1 effector Jurkat T cells

Chain of human PD-L1 (Q9NZQ7 19-290): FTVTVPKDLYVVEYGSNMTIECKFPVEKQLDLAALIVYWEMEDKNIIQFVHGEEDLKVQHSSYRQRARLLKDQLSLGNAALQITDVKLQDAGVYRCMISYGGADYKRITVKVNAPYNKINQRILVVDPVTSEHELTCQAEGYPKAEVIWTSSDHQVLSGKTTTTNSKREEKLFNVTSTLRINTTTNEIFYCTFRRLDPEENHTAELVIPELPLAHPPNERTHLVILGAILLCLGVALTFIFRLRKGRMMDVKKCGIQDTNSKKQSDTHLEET

Compound	EC50 (human PD-L1; [2]) [nM]	IC50 ([1]; PD-L1 His 6 nM, PD-1 Fc 6 nM) [nM]	EC50 (human PD-L1) [nM]	IC50 [1] [nM]
COc1cc(-c2nccc(-c3cccc(-c4ccc(CNCCNC(C)=O)c(OC)n4)c3Cl)c2Cl)ccc1CNCCNC(C)=O	70.2	1.39		
COc1cc(-c2nccc(-c3cccc(-c4ccc(CN(C)C5CCN(C(C)=O)CC5)c(OC)n4)c3Cl)c2Cl)ccc1CNC1CCN(C(C)=O)CC1	49.1	3.12		
1-(6-((6-(2-Chloro-3-(3-chloro-2-(3-methoxy-4-((6-(2-methoxyacetyl)-2,6-diazaspiro[3.3]heptan-2-yl)methyl)phenyl)pyridin-4-yl)phenyl)-2-methoxypyridin-3-yl)methyl)-2,6-diazaspiro[3.3]heptan-2-yl)-2-methoxyethan-1-one [Example 594]			33.7	0.17
2-(4-(3-Chloro-4-(2-chloro-3-(5-methoxy-6-((7-oxo-2,6-diazaspiro[3.4]octan-2-yl)methyl)pyridin-3-yl)phenyl)pyridin-2-yl)-2-methoxybenzyl)-2,6-diazaspiro[3.4]octan-7-one [Example 566]	341	0.93		
COc1nc(-c2cccc(-c3ccnc(-c4ccc5c(c4)CCCC5NC[C@@H]4CCC(=O)N4)c3Cl)c2Cl)ccc1CNC[C@@H]1CCC(=O)N1 (mixture of isomers) [Compound 112, (5S)-5-((((6-(2-chloro-3-(3-chloro-2-(5-((((S)-5-oxopyrrolidin-2-yl)methyl)amino)-5,6,7,8-tetrahydronaphthalen-2-yl)pyridin-4-yl)phenyl)-2-methoxypyridin-3-yl)methyl)amino)methyl)pyrrolidin-2-one]	50.5	1		
COc1nc(-c2cccc(-c3ccnc(-c4ccc5c(c4)CCCC5NC[C@H](C)O)c3Cl)c2Cl)ccc1CNC[C@@H]1CCC(=O)N1 (mixture of isomers) [Compound 113, (5S)-5-((((6-(2-chloro-3-(3-chloro-2-(5-(((S)-2-hydroxypropyl)amino)-5,6,7,8-tetrahydronaphthalen-2-yl)pyridin-4-yl)phenyl)-2-methoxypyridin-3-yl)methyl)amino)methyl)pyrrolidin-2-one]	185	0.7		
COc1cc(-c2nccc(-c3ccnc(-c4ccc(CNC[C@@H]5CCC(=O)N5)c(OC)c4)c3Cl)c2Cl)ccc1CNC[C@@H]1CCC(=O)N1 [Compound 4, (5S,5′S)-5,5′-(((((3,3′-dichloro-[4,4′-bipyridine]-2,2′-diyl)bis(2-methoxy-4,1-phenylene))bis(methylene))bis(azanediyl))bis(methylene))bis(pyrrolidin-2-one)]	96.3	8.3		
CN1CCNCc2ccc(-c3nccc(-c4cccc(-c5ccc6c(CNC[C@@H]7CCC(=O)N7)cn(C)c6n5)c4Cl)c3Cl)cc21 [Compound 9, (S)-5-((((6-(2-chloro-3-(3-chloro-2-(1-methyl-2,3,4,5-tetrahydro-1H-benzo[e][1,4]diazepin-8-yl)pyridin-4-yl)phenyl)-1-methyl-1H-pyrrolo[2,3-b]pyridin-3-yl)methyl)amino)methyl)pyrrolidin-2-one]	212	15.5		
COc1cc(-c2nccc(-c3ccnc(-c4cc(F)c(CNC[C@@H]5CCC(=O)N5)c(OC)c4)c3Cl)c2Cl)cc(F)c1CNC[C@@H]1CCC(=O)N1 [Compound 12, (5S,5′S)-5,5′-(((((3,3′-dichloro-[4,4′-bipyridine]-2,2′-diyl)bis(2-fluoro-6-methoxy-4,1-phenylene))bis(methylene))bis(azanediyl))bis(methylene))bis(pyrrolidin-2-one)]	67.1	0.1		
COc1cc(-c2nccc(-c3ccnc(-c4ccc5c(CNC[C@@H]6CCC(=O)N6)cn(C)c5c4)c3Cl)c2Cl)ccc1CNC[C@@H]1CCC(=O)N1 [Compound 14, (S)-5-(((4-(3,3′-dichloro-2′-(1-methyl-3-(((((S)-5-oxopyrrolidin-2-yl)methyl)amino)methyl)-1H-indol-6-yl)-[4,4′-bipyridin]-2-yl)-2-methoxybenzyl)amino)methyl)pyrrolidin-2-one]	165	0.6		
Cn1cc(CNC[C@@H]2CCC(=O)N2)c2ccc(-c3nccc(-c4ccnc(-c5ccc6c(CNC[C@@H]7CCC(=O)N7)cn(C)c6c5)c4Cl)c3Cl)cc21 [Compound 15, (5S,5′S)-5,5′-(((((3,3′-dichloro-[4,4′-bipyridine]-2,2′-diyl)bis(1-methyl-1H-indole-6,3-diyl))bis(methylene))bis(azanediyl))bis(methylene))bis(pyrrolidin-2-one)]	10000	108		
COc1cc(-c2nccc(-c3ccnc(-c4cnc5c(CNC[C@@H]6CCC(=O)N6)cn(C)c5c4)c3Cl)c2Cl)ccc1CNC[C@@H]1CCC(=O)N1 [Compound 16, (S)-5-(((4-(3,3′-dichloro-2′-(1-methyl-3-(((((S)-5-oxopyrrolidin-2-yl)methyl)amino)methyl)-1H-pyrrolo[3,2-b]pyridin-6-yl)-[4,4′-bipyridin]-2-yl)-2-methoxybenzyl)amino)methyl)pyrrolidin-2-one]	355	1		
COc1cc(-c2nccc(-c3cccc(-c4ccc5c(CNC[C@@H]6CCC(=O)N6)cn(C)c5n4)c3Cl)c2Cl)ccc1CNC[C@@H]1CCC(=O)N1 [Compound 17, (S)-5-((((6-(2-chloro-3-(3-chloro-2-(3-methoxy-4-(((((S)-5-oxopyrrolidin-2-yl)methyl)amino)methyl)phenyl)pyridin-4-yl)phenyl)-1-methyl-1H-pyrrolo[2,3-b]pyridin-3-yl)methyl)amino)methyl)pyrrolidin-2-one]	29.2	2.4		
COc1cc(-c2nccc(-c3cccc(-c4cc5c(c(OC)c4)CN(C[C@@H]4CCC(=O)N4)CC5)c3Cl)c2Cl)ccc1CNC[C@@H]1CCC(=O)N1 [Compound 18, (S)-5-((6-(2-chloro-3-(3-chloro-2-(3-methoxy-4-(((((S)-5-oxopyrrolidin-2-yl)methyl)amino)methyl)phenyl)pyridin-4-yl)phenyl)-8-methoxy-3,4-dihydroisoquinolin-2(1H)-yl)methyl)pyrrolidin-2-one]	75.6	39.8		
COc1nc(-c2cccc(-c3ccnc(-c4cnc5c(CNC6CCN(C(C)=O)CC6)cn(C)c5c4)c3Cl)c2Cl)ccc1CNC[C@@H]1CCC(=O)N1 [Compound 21, (S)-5-((((6-(3-(2-(3-(((1-acetylpiperidin-4-yl)amino)methyl)-1-methyl-1H-pyrrolo[3,2-b]pyridin-6-yl)-3-chloropyridin-4-yl)-2-chlorophenyl)-2-methoxypyridin-3-yl)methyl)amino)methyl)pyrrolidin-2-one]	75.8	0.1		
COc1nc(-c2cccc(-c3ccnc(-c4cnc5c(CNC[C@@H]6CCO6)cn(C)c5c4)c3Cl)c2Cl)ccc1CNC[C@@H]1CCC(=O)N1 [Compound 22, (S)-5-((((6-(2-chloro-3-(3-chloro-2-(1-methyl-3-(((((S)-oxetan-2-yl)methyl)amino)methyl)-1H-pyrrolo[3,2-b]pyridin-6-yl)pyridin-4-yl)phenyl)-2-methoxypyridin-3-yl)methyl)amino)methyl)pyrrolidin-2-one]	135	0.3		
COc1cc(-c2nccc(-c3cccc(-c4ccc(CNC[C@@H]5CCC(=O)N5)c(OC)n4)c3Cl)c2Cl)cnc1CNC[C@@H]1CCC(=O)N1 [Compound 23, (S)-5-((((6-(2-chloro-3-(3-chloro-5′-methoxy-6′-(((((S)-5-oxopyrrolidin-2-yl)methyl)amino)methyl)-[2,3′-bipyridin]-4-yl)phenyl)-2-methoxypyridin-3-yl)methyl)amino)methyl)pyrrolidin-2-one]	36.3	0.1		
COc1nc(-c2cccc(-c3ccnc(-c4ccc5c(c4)N(C)CCN(C[C@H](C)O)C5)c3Cl)c2Cl)ccc1CNC[C@@H]1CCC(=O)N1 [Compound 24, (S)-5-((((6-(2-chloro-3-(3-chloro-2-(4-((S)-2-hydroxypropyl)-1-methyl-2,3,4,5-tetrahydro-1H-benzo[e][1,4]diazepin-8-yl)pyridin-4-yl)phenyl)-2-methoxypyridin-3-yl)methyl)amino)methyl)pyrrolidin-2-one]	87.2	0.8		
COc1nc(-c2cccc(-c3ccnc(-c4ccc5c(c4)OCCN(C[C@H](C)O)C5)c3Cl)c2Cl)ccc1CNC[C@@H]1CCC(=O)N1 [Compound 25, (S)-5-((((6-(2-chloro-3-(3-chloro-2-(4-((S)-2-hydroxypropyl)-2,3,4,5-tetrahydrobenzo[f][1,4]oxazepin-8-yl)pyridin-4-yl)phenyl)-2-methoxypyridin-3-yl)methyl)amino)methyl)pyrrolidin-2-one]	334	0.5		
COc1nc(-c2cccc(-c3ccnc(-c4ccc5c(c4)OCCNC5)c3Cl)c2Cl)ccc1CNC[C@@H]1CCC(=O)N1 [Compound 26, (S)-5-((((6-(2-chloro-3-(3-chloro-2-(2,3,4,5-tetrahydrobenzo[f][1,4]oxazepin-8-yl)pyridin-4-yl)phenyl)-2-methoxypyridin-3-yl)methyl)amino)methyl)pyrrolidin-2-one]	77.3	0.2		
COc1nc(-c2ccnc(-c3cccc4c3CC[C@@H]4Oc3nc(OC)c(CNC[C@@H]4CCC(=O)N4)cc3C(F)(F)F)c2Cl)ccc1CNC1CCN(C(C)=O)CC1 [Example 544, (S)-5-((((6-(((S)-4-(5-(((1-acetylpiperidin-4-yl)amino)methyl)-3′-chloro-6-methoxy-[2,4′-bipyridin]-2′-yl)-2,3-dihydro-1H-inden-1-yl)oxy)-2-methoxy-5-(trifluoromethyl)pyridin-3-yl)methyl)amino)methyl)pyrrolidin-2-one]		0.8		
COc1cc(-c2nccc(-c3cccc(NC(=O)c4ccc(CNCCO)cn4)c3Cl)c2Cl)ccc1CN1CC2(CNC(=O)C2)C1 [Example 754, N-(2-Chloro-3-(3-chloro-2-(3-methoxy-4-((7-oxo-2,6-diazaspiro[3.4]octan-2-yl)methyl)phenyl)pyridin-4-yl)phenyl)-5-(((2-hydroxyethyl)amino)methyl)picolinamide]	9.1			
